According to patent US8658383B2, “Sweet taste receptor-expressing construct, cell body expressing the same, and utilization thereof” (T. Hasegawa Co., Ltd., priority 2009, dated 2014):
Residues, ends and D or L forms follow the SMILES beside them.

Molecular target: T1, human sweet taste receptor (hT1R2+hT1R3) (Homo sapiens, UniProt Q7RTX0+Q8TE23)
T1 sequence (Q8TE23 20-839): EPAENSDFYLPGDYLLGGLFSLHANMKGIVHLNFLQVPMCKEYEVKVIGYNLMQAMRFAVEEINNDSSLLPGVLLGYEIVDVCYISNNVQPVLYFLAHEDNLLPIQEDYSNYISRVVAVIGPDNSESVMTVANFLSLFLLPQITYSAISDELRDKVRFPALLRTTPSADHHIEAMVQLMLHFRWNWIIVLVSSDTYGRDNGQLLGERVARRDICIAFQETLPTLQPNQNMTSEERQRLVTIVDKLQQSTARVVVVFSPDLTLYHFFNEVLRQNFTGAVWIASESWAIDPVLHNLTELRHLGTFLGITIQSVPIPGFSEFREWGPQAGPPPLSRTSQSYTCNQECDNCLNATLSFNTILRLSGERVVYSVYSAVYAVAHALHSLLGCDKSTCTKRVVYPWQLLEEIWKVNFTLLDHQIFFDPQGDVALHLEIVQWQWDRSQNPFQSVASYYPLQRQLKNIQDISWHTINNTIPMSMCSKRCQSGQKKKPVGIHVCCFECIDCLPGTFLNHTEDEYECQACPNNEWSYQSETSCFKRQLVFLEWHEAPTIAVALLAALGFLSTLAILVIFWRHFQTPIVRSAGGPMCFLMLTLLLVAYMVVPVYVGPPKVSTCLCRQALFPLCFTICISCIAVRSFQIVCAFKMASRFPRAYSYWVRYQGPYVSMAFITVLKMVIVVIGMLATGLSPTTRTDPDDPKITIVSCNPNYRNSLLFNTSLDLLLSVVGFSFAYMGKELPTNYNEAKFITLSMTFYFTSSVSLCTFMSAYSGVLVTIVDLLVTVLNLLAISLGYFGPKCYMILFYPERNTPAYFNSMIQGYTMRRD
T1 sequence (Q7RTX0 21-852): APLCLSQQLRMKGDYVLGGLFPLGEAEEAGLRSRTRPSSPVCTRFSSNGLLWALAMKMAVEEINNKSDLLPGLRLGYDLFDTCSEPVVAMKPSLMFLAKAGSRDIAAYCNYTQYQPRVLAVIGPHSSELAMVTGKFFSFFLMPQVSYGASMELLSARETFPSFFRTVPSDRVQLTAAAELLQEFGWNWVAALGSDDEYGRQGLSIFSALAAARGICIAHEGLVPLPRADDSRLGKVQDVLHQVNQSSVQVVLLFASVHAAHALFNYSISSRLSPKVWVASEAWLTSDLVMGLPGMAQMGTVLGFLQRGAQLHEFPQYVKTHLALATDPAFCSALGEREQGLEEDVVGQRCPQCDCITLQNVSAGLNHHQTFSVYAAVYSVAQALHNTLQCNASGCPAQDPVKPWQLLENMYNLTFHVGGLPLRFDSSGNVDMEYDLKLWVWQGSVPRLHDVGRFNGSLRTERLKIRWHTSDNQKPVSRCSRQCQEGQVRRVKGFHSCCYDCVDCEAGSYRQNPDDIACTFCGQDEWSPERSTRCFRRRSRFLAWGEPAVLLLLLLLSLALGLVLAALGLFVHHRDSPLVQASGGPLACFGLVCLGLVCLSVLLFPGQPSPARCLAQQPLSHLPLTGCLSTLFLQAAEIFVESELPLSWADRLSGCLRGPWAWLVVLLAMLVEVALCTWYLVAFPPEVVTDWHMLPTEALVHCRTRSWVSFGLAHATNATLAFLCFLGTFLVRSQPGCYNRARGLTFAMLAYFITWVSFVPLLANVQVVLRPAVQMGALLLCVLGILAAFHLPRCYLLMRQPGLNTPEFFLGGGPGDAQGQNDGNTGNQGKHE
Assay: Automated fluorescent calcium imaging (Fluo-4 AM, FlexStation 3) of cultured cell strain (A)
Format: cell-based
Design: The sweet taste receptor subunits T1R2 and T1R3 include an entire part of each subunit
Settings: Average ± S.E., n = 2
Procedure: Automated fluorescent imaging using FlexStation 3 (Molecular Devices) can be performed, for example, according to the following procedure.
First, cells are suspended in a low glucose ([…]) DMEM medium from which hygromycin B has been removed, and each 70 to 80 thousands of cells are seeded on each well of a 96-well plate (Corning, CellBIND Surface).
Then, after cultured at 37° C. for 24 hours, a medium is removed and replaced with a suitable amount of a HEPES (2-[4-(2-hydroxyethyl)-1-piperazinyl]ethanesulfonic acid) buffer, and a HEPES buffer containing a fluorescent calcium indicator (Fluo-4 AM attached to Molecular Devices, FLIPR Ca 4 Assay Kit) is further added. In order to facilitate transfer into cells, a fat-soluble acetoxymethyl group has been introduced into the fluorescent indicator Fluo-4 (excitation wavelength: 495 nm, fluorescent wavelength: 518 nm), and when it is added to a medium, it is easily taken into cells, and is hydrolyzed with an esterase in cells. Hydrolyzed Fluo-4 becomes difficult to be permeated through a cell membrane, and is diffused into cells to form a complex with calcium, emitting intense fluorescence. In a 96-well plate for fluorescent observation, there are a plastic bottom and a film bottom. Since a plate of the plastic bottom is satisfactory in adherability and growth of cells, it is used at a simultaneous assay using a multiplate reader for observing an entire well. However, since a plate of this plastic bottom is bad in transmission property of a UV wavelength, and inhibits transmission of excited light of Fura-2, Fluo-4 is used.
Then, after incubated at 27 to 37° C. for 30 to 60 minutes, by adding thereto a sweet taste substance at a particular concentration or a solution of a sweet taste substance and a substance to be tested, taste stimulation is performed at 27 to 37° C.
A physiological response of the cultured cell strain (A) to sucrose stimulation was analyzed by automated fluorescent imaging.
The cultured cell strain (A) prepared in Example 4 was trypsinized, and suspended in the DMEM medium, a cell density was measured, and each about 80 thousand cells were seeded on each well of a 96-well plate (Corning, CellBIND Surface).
After cultured at 37° C. for 24 hours, the medium was removed and replaced with 50 μl of a HEPES buffer, and 50 μl of a HEPES buffer containing a fluorescent calcium indicator (Fluo-4 AM attached to Molecular Devices, FLIPR Ca 4 Assay Kit) was further added. Then, this was incubated at 27° C. for 45 minutes to prepare cells to be subjected to automated fluorescent imaging.
Then, to the cells was added a HEPES buffer containing sucrose, so that a final concentration of sucrose became a concentration described in Table 1, and sucrose stimulation was performed at 27° C.
The vertical axis of FIG. 15 is a maximum of change (AF) in a fluorescent intensity between immediately after stimulation and 100 seconds after stimulation, that is, a response intensity of cells, and the horizontal axis indicates a sucrose concentration (mM) expressed by logarithm.
A physiological response of the cultured cell strain (A) to D-phenylalanine stimulation was analyzed by automated fluorescent imaging.

COC(=O)[C@H](Cc1ccccc1)NC(=O)[C@@H](N)CC(=O)O [aspartame] (H-Asp-Phe-OMe)
Change amount of fluorescent intensity (ΔF) (aspartame 0.04 mM): 3.0 ± 0.1 | Change amount of fluorescent intensity (ΔF) (aspartame 0.16 mM): 4.4 ± 1.1 | Change amount of fluorescent intensity (ΔF) (aspartame 0.31 mM): 5.2 ± 0.4 | Change amount of fluorescent intensity (ΔF) (aspartame 0.63 mM): 12.3 ± 1.7 | Change amount of fluorescent intensity (ΔF) (aspartame 1.25 mM): 27.9 ± 1.9 | Change amount of fluorescent intensity (ΔF) (aspartame 2.50 mM): 31.2 ± 0.7
